Experimental data taken from publication PMC11911205 (Frontiers in Pharmacology, 2025).
Where two headings read alike, the source gives them in different places.

Legend:
[1] = target: human liver microsomes (HLM) (Homo sapiens, UniProt P08684)
Method: (§1) Considering that RLM or HLM microsome may have different metabolic rates, we conducted experiments on enzyme and incubation time before the start of the experiment. […] A rate-time graph was created to select the most suitable concentration and incubation time within the linear range of variation. […] The drug was dissolved in DMSO.
(§2) The relationship between reaction rate and substrate concentration based on the Michaelis-Menten equation was calculated, and the Km value through nonlinear fitting was determined. […] The relationship between inhibitor concentration and reaction rate was plotted after the reaction rate at different inhibitor concentrations was determined, and then the IC50 value through nonlinear regression analysis was calculated. […] The above mixture was incubated at 37°C for 5 min, after which NADPH was added to start the reaction process for 30 min, and it was finally cooled to −80°C to stop the reaction. 400 μL of acetonitrile and 20 μL of IS working solution (200 ng/mL) were incorporated into the mixture. Following vortexed and centrifugated at 13,000 rpm for 10 min, the supernatant was obtained for UPLC-MS/MS analysis.
(§3) Km, IC50, Lineweaver-Burk plots and mean plasma concentration-time curves were generated using GraphPad Prism 9.5 software. […] SPSS (version 26.0; SPSS Inc., Chicago, IL, United States) was used for data processing, and t-test was employed to determine whether there was a significant difference.

[2] = test system: rat liver microsomes (RLM); test: Vandetanib metabolism (N-demethyl vandetanib formation) and its inhibition by luteolin in rat liver microsomes; conditions: RLM, Lineweaver-Burk plot
Method: as §1, §2, §3

[3] = test system: vandetanib metabolism (N-demethyl vandetanib formation) in rat liver microsomes; test: as above; conditions: rat, rat liver microsomes, pH 7.4, probe vandetanib at its Km value in RLM
Method: as §1, §2, §3

[4] = target: vandetanib metabolism (N-demethyl vandetanib formation) in human liver microsomes (Homo sapiens, UniProt P08684); test: Vandetanib metabolism (N-demethyl vandetanib formation) and its inhibition by luteolin in human liver microsomes; conditions: pH 7.4
Method: as §1, §2, §3

[5] = Pharmacokinetics of vandetanib and N-demethyl vandetanib in SD rats with or without luteolin (UPLC-MS/MS of plasma); format: in vivo, Sprague-Dawley (SD) rats; conditions: for AUC(0-inf) / half-life / AUC(0-t) / CL/F / Cmax / Tmax / AUC(0-∞) / CLz/F / t1/2: plasma; for CL/F: read-out: CLz/F (converted)
Method: Male SD rats weighing 180–220 g were provided by the Laboratory Animal Center of the First Affiliated Hospital of Wenzhou Medical University (Zhejiang, China). They were housed under standard conditions with a temperature of 20°C–26°C, a relative humidity of 55% ± 15%, and a 12-h dark/light cycle. The rats had free access to water and no other drugs were given during the feeding period, and were prohibited from eating for 12 h before the experiment. The experimental procedures and protocols were in accordance with animal ethics standards and approved by the Institutional Animal Care and Use Committee of the First Affiliated Hospital of Wenzhou Medical University (Zhejiang, China).
Therefore, we adopted the same dosages to ensure the comparability and validity of the experimental results. 0.3 mL tail vein blood was collected at 0.5, 1, 1.5, 2, 3, 4, 6, 8, 12, 24, 48 and 80 h post-vandetanib administration. The blood samples were centrifuged at 4°C at 13,000 rpm for 10 min to obtain plasma, which was aspirated and stored at −80°C until analysis.

[6] = set-up: method as in Martin et al., 2011; conditions: ref Martin et al., 2011, cited from earlier work
in vitro = conditions: rat, pH 7.4
Method: as §1, §2, §3

[7] = set-up: method as in Indra et al., 2020; conditions: ref Indra et al., 2020; cited from earlier work
[8] = inhibition of vandetanib metabolism
[9] = luteolin 30 mg/kg + vandetanib 25 mg/kg vs vandetanib alone
[10] = male, Sprague-Dawley, rat, po, 25 mg/kg, luteolin 30 mg/kg by gavage 30 min before vandetanib 25 mg/kg by gavage
[11] = male, Sprague-Dawley, rat, po, 25 mg/kg, vandetanib 25 mg/kg by gavage alone (control group)
[12] = luteolin 30 mg/kg by gavage 30 min before vandetanib 25 mg/kg by gavage
[13] = vandetanib 25 mg/kg by gavage alone (control group)

Chain of human liver microsomes (HLM) (P08684 2-503): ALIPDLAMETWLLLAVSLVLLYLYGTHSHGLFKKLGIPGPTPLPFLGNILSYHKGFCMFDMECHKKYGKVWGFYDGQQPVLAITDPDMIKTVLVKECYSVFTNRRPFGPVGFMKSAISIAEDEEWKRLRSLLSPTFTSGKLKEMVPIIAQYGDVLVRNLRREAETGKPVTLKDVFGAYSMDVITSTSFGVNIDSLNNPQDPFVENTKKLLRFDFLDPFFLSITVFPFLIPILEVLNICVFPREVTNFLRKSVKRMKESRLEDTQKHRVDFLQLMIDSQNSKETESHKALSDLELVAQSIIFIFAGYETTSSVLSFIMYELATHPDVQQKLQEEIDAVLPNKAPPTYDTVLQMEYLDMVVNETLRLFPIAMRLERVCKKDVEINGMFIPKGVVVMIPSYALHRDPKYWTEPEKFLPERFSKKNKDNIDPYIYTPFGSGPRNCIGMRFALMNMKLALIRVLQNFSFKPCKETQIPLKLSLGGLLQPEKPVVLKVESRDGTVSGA
Chain of vandetanib metabolism (N-demethyl vandetanib formation) in human liver microsomes (P08684 2-503): as above

O=c1cc(-c2ccc(O)c(O)c2)oc2cc(O)cc(O)c12 [Luteolin]
inhibition type [1]: mixture of non-competitive and un-competitive | α [1]: 0.28 µM | inhibition mechanism [2]: mixture of non-competitive inhibition and competitive inhibition | Ki [2, 8]: 2.33 µM | α [2, 8]: 6.68 µM | IC50 at 30 min [3]: 8.56 µM | IC50 at 30 min [4]: 15.8 µM

COc1cc2c(Nc3ccc(Br)cc3F)ncnc2cc1OCC1CCN(C)CC1 [Vandetanib]
increase of AUC(0-t) of vandetanib in luteolin group compared with the control group [5, 9]: 18.1% | increase of Cmax of vandetanib in luteolin group compared with the control group [5, 9]: 32.8% | AUC(0-inf) [5, 10]: 41100 ng·h/mL | half-life [5, 10]: 23 ± 4.02 h | AUC(0-t) ([5]; male, Sprague-Dawley, rat, po, 25 mg/kg, luteolin 30 mg/kg by gavage 30 min before vandetanib 25 mg/kg by gavage, read-out: AUC(0-t)): 37100 ng·h/mL | CL/F [5, 10]: 10.2 mL/min/kg | Cmax ([5]; male, Sprague-Dawley, rat, po, 25 mg/kg, luteolin 30 mg/kg by gavage 30 min before vandetanib 25 mg/kg by gavage, read-out: Cmax): 1140 ng/mL | Tmax ([5]; male, Sprague-Dawley, rat, po, 25 mg/kg, luteolin 30 mg/kg by gavage 30 min before vandetanib 25 mg/kg by gavage, read-out: Tmax): 7.6 ± 2.61 h | AUC(0-inf) [5, 11]: 36100 ng·h/mL | half-life [5, 11]: 26.6 ± 4.35 h | AUC(0-t) ([5]; male, Sprague-Dawley, rat, po, 25 mg/kg, vandetanib 25 mg/kg by gavage alone (control group), read-out: AUC(0-t)): 31400 ng·h/mL | CL/F [5, 11]: 11.7 mL/min/kg | Cmax ([5]; male, Sprague-Dawley, rat, po, 25 mg/kg, vandetanib 25 mg/kg by gavage alone (control group), read-out: Cmax): 859 ± 125 ng/mL | Tmax ([5]; male, Sprague-Dawley, rat, po, 25 mg/kg, vandetanib 25 mg/kg by gavage alone (control group), read-out: Tmax): 8.8 ± 3.03 h | levels of vandetanib exposure ([6]; combined with itraconazole, a potent CYP3A4 inhibitor): increased | AUC of vandetanib ([6]; combined with rifampicin, a strong inducer of CYP3A4): significantly decreased | Km at 30 min (in vitro): 9.41 µM

COc1cc2c(Nc3ccc(Br)cc3F)ncnc2cc1OCC1CCNCC1 [N-demethyl vandetanib]
AUC(0-t) [5, 12]: 998.82 ± 276.65 ng·h/mL | AUC(0-∞) [5, 12]: 1,118.64 ± 320.66 μg/L*h | CLz/F [5, 12]: 397.2 ± 108 mL/min/kg | Cmax [5, 12]: 22.41 ± 5.84 ng/mL | Tmax [5, 12]: 11.20 ± 1.79 h | t1/2 [5, 12]: 24.33 ± 5.63 h | AUC(0-t) [5, 13]: 938.88 ± 144.07 ng·h/mL | AUC(0-∞) [5, 13]: 1,163.14 ± 157.34 μg/L*h | CLz/F [5, 13]: 363.8 ± 51.7 mL/min/kg | Cmax [5, 13]: 19.56 ± 3.03 ng/mL | Tmax [5, 13]: 14.40 ± 5.37 h | t1/2 [5, 13]: 34.04 ± 15.69 h

COc1cc2c(Nc3ccc(Br)cc3F)ncnc2cc1OCC1CC[N+](C)([O-])CC1 (stereo not shown) [vandetanib N-oxide]
less activity compared to the original compound (vandetanib) [7]: over 50 times
